Patent publication US8202877B2, “Aminopyrimidinamides as pesticides” (Bayer CropScience AG, priority 2009, dated 2012)

System: not listed separately
Assay: logP (HCOOH), physicochemical characterization
Conditions: not given
With `Cc1ncccc1C(=O)Nc1c(NC2CC2)ncnc1-c1ccc(F)cc1` [1-1] the “logP (HCOOH)” value was 0.71.
With `CCc1ncccc1C(=O)Nc1c(NC2CC2)ncnc1-c1ccc(SC(F)(F)F)cc1` [1-114] the “logP (HCOOH)” value was 1.4.
In the case of `O=C(Nc1c(NC2CC2)ncnc1-c1ccccc1)c1cccnc1` [1-128], the “logP (HCOOH)” value is reported as 0.63.
With `CCc1ncccc1C(=O)Nc1c(NC2CC2)ncnc1-c1ccc(C#N)cc1` [1-133] the “logP (HCOOH)” value was 1.10.
With `CCc1ncccc1C(=O)Nc1c(NC2CC2)ncnc1-c1ccc(F)cc1Cl` [1-139] the “logP (HCOOH)” value was 0.79.
In the case of `CCOc1ncccc1C(=O)Nc1c(NC2CC2)ncnc1-c1ccc(C#N)cc1` [1-160], the “logP (HCOOH)” value is reported as 1.80.
With `CCc1ncccc1C(=O)Nc1c(NC2CC2)ncnc1-c1ccc(F)cc1C` [1-180] the “logP (HCOOH)” value was 1.10.
In the case of `CCc1ncccc1C(=O)Nc1c(NC2CC2)ncnc1-c1ccccc1C` [1-182], the “logP (HCOOH)” value is reported as 0.94.
In the case of `CCc1ncccc1C(=O)Nc1c(NC2CC2)ncnc1-c1ccc(Cl)cc1C` [1-188], the “logP (HCOOH)” value is reported as 1.40.
For `O=C(Nc1c(NC2CC2)ncnc1-c1ccc(Cl)cc1)c1c(F)cccc1Cl` [1-263], the “logP (HCOOH)” value was 2.20.
In the case of `CCCc1ncccc1C(=O)Nc1c(NC2CC2)ncnc1-c1ccc(Cn2nc(C(F)(F)F)nc2C(F)(F)F)cc1` [1-264], the “logP (HCOOH)” value is reported as 1.9.
In the case of `CCc1ncccc1C(=O)Nc1c(NC2CC2)nc(C)nc1-c1ccccc1` [1-275], the “logP (HCOOH)” value is reported as 0.76.
In the case of `CCc1ncccc1C(=O)Nc1c(NC2CC2)nc(C)nc1-c1ccc(F)cc1` [1-276], the “logP (HCOOH)” value is reported as 0.88.
For `CCc1ncccc1C(=O)Nc1c(NC2CC2)nc(C)nc1-c1ccc(F)cc1F` [1-278], the “logP (HCOOH)” value was 1.
In the case of `CCc1ncccc1C(=O)Nc1c(Br)ncnc1NC1CC1` [3-3], the “logP (HCOOH)” value is reported as 0.84.
For `O=C(Nc1c(NC2CC2)ncnc1-c1ccc(F)cc1)c1ccnn1-c1ccc(F)cc1` [9-1], the “logP (HCOOH)” value was 1.70.
For `O=C(Nc1c(NC2CC2)ncnc1-c1ccc(F)cc1)c1ccnn1-c1ccc(Cl)cc1` [9-2], the “logP (HCOOH)” value was 2.02.
In the case of `O=C(Nc1c(NC2CC2)ncnc1-c1ccc(F)cc1)c1ccnn1-c1ccccc1Cl` [9-3], the “logP (HCOOH)” value is reported as 1.76.
For `O=C(Nc1c(NC2CC2)ncnc1-c1ccc(Cl)cc1)c1ccnn1-c1ccccc1Cl` [9-4], the “logP (HCOOH)” value was 2.05.

System: Spodoptera litura third instar larvae
Assay: not given
Conditions: active compound concentration of 100 ppm; sweet potato leaves immersed; after 7 days
Molecule `CCc1ncccc1C(=O)Nc1c(NC2CC2)ncnc1-c1ccc(Cl)cc1` [1-177, N-[4-(4-Chlorophenyl)-6-cyclopropylaminopyrimidin-5-yl]-2-ethylnicotinamide] has an insecticidal activity of 100%.
With `CCc1ncccc1C(=O)Nc1c(NC2CC2)ncnc1-c1ccc(C(F)(C(F)(F)F)C(F)(F)F)cc1` [1-232] the insecticidal activity was 100%.
For `O=C(Nc1c(NC2CC2)ncnc1-c1ccccc1)c1cccnc1C1CC1` [1-234], the insecticidal activity was 100%.
Work on `O=C(Nc1c(NC2CC2)ncnc1-c1ccc(F)cc1)c1cccnc1C1CC1` [1-235] yielded an insecticidal activity of 100%.
With `O=C(Nc1c(NC2CC2)ncnc1-c1ccc(Cl)cc1)c1cccnc1C1CC1` [1-236] the insecticidal activity was 100%.
`CCCc1ncccc1C(=O)Nc1c(NC2CC2)ncnc1-c1ccccc1` [1-237] gave an insecticidal activity of 100%.
Work on `CCCc1ncccc1C(=O)Nc1c(NC2CC2)ncnc1-c1ccc(F)cc1` [1-238] yielded an insecticidal activity of 100%.
In the case of `CCCc1ncccc1C(=O)Nc1c(NC2CC2)ncnc1-c1ccc(Cl)cc1` [1-239], the insecticidal activity is reported as 100%.
In the case of `O=C(Nc1c(NC2CC2)ncnc1-c1ccc(F)cc1F)c1cccnc1C1CC1` [1-240], the insecticidal activity is reported as 100%.
For `O=C(Nc1c(NC2CC2)ncnc1-c1ccc(Cl)cc1)c1cccnc1C(F)(F)C(F)(F)F` [1-241], the insecticidal activity was 100%.
In the case of `N#Cc1ccc(-c2ncnc(NC3CC3)c2NC(=O)c2cccnc2C2CC2)cc1` [1-242], the insecticidal activity is reported as 100%.
Molecule `O=C(Nc1c(NC2CC2)ncnc1-c1ccc(OC(F)(F)F)cc1)c1cccnc1C1CC1` [1-243] has an insecticidal activity of 100%.
Molecule `CCCc1ncccc1C(=O)Nc1c(NC2CC2)ncnc1-c1ccc(Cl)cc1Cl` [1-244] has an insecticidal activity of 100%.
For `CCCc1ncccc1C(=O)Nc1c(NC2CC2)ncnc1-c1ccc(F)cc1F` [1-245], the insecticidal activity was 100%.
Molecule `CCCc1ncccc1C(=O)Nc1c(NC2CC2)ncnc1-c1ccc(C#N)cc1` [1-246] has an insecticidal activity of 100%.
With `CCc1ncccc1C(=O)Nc1c(NC2CC2)ncnc1-c1ccc(Cn2nc(C(F)(F)C(F)(F)F)cc2C(F)(F)F)cc1` [1-247] the insecticidal activity was 100%.
`O=C(Nc1c(NC2CC2)ncnc1-c1ccc(Cn2nc(C(F)(F)F)cc2C(F)(F)F)cc1)c1cccnc1C1CC1` [1-252] gave an insecticidal activity of 100%.
`O=C(Nc1c(NC2CC2)ncnc1-c1ccc(Cn2nc(C(F)(F)C(F)(F)F)cc2C(F)(F)F)cc1)c1cccnc1C1CC1` [1-253] showed an insecticidal activity of 100%.
`O=C(Nc1c(NC2CC2)ncnc1-c1ccc(F)cc1F)c1cccnc1CC(F)(F)F` [1-254] gave an insecticidal activity of 100%.
`CCc1ccccc1C(=O)Nc1c(NC2CC2)ncnc1-c1ccc(OC(F)(F)F)cc1` [1-257] showed an insecticidal activity of 100%.
`CCc1ncccc1C(=O)Nc1c(NC2CC2)ncnc1-c1ccc(Cn2nc(C(F)(F)F)nc2C(F)(F)F)cc1` [1-258] gave an insecticidal activity of 100%.
Work on `O=C(Nc1c(NC2CC2)ncnc1-c1ccc(Cn2nc(C(F)(F)F)nc2C(F)(F)F)cc1)c1cccnc1C1CC1` [1-259] yielded an insecticidal activity of 100%.
Molecule `CCCc1ncccc1C(=O)Nc1c(NC2CC2)ncnc1-c1ccc(Cn2nc(C(F)(F)F)nc2C(F)(F)F)cc1` [1-264] has an insecticidal activity of 100%.
`CCc1ccccc1C(=O)Nc1c(NC2CC2)ncnc1-c1ccc(Cn2nc(C(F)(F)F)nc2C(F)(F)F)cc1` [1-265] showed an insecticidal activity of 100%.
In the case of `CCc1ncccc1C(=O)Nc1c(NC2CC2)ncnc1-c1ccc(Cn2ccc(C(F)(F)C(F)(F)F)n2)cc1` [1-266], the insecticidal activity is reported as 100%.
In the case of `CCc1ncccc1C(=O)Nc1c(NC2CC2)ncnc1-c1ccc(Cn2ccc(C(F)(F)C(F)(F)C(F)(F)F)n2)cc1` [1-267], the insecticidal activity is reported as 100%.
For `CCc1ncccc1C(=O)Nc1c(NC2CC2)ncnc1-c1ccc(Cn2nc(C(F)(F)F)cc2C(F)(F)F)cc1` [1-268], the insecticidal activity was 100%.
Molecule `CCc1ncccc1C(=O)Nc1c(NC2CC2)ncnc1-c1ccc(Cn2nc(C(F)(F)C(F)(F)F)cc2C(F)(F)C(F)(F)F)cc1` [1-269] has an insecticidal activity of 100%.
`CCc1ccccc1C(=O)Nc1c(NC2CC2)ncnc1-c1ccc(Cn2cnc(C(F)(F)F)n2)cc1` [1-286] gave an insecticidal activity of 100%.
`CCc1ncccc1C(=O)Nc1c(NC2CC2)ncnc1-c1ccc(Oc2ncc(C(F)(F)F)cc2Cl)cc1` [1-310] showed an insecticidal activity of 100%.
For `CCc1ncccc1C(=O)Nc1c(NC2CC2)ncnc1-c1ccc(Oc2ncccc2C(F)(F)F)cc1` [1-311], the insecticidal activity was 100%.
For `CCc1ncccc1C(=O)Nc1c(NC2CC2)ncnc1-c1ccc(Oc2cccc(C(F)(F)F)n2)cc1` [1-312], the insecticidal activity was 100%.
`CCc1ncccc1C(=O)Nc1c(NC2CC2)nc(C(F)(F)F)nc1-c1ccc(F)cc1` [1-313] showed an insecticidal activity of 100%.
`CCc1ncccc1C(=O)Nc1c(NC2CC2)nc(C(F)(F)F)nc1-c1ccc(F)cc1F` [1-314] showed an insecticidal activity of 100%.
In the case of `CCc1ncccc1C(=O)Nc1c(NC2CC2)ncnc1-c1ccc(Oc2nc(C(F)(F)F)cc(C(F)(F)C(F)(F)F)n2)cc1` [1-317], the insecticidal activity is reported as 100%.
With `CCc1ncccc1C(=O)Nc1c(NC2CC2)ncnc1-c1ccc(Cc2nc(C(F)(F)C(F)(F)C(F)(F)F)n(C)n2)cc1` [1-318] the insecticidal activity was 100%.
In the case of `CCc1ncccc1C(=O)Nc1c(NC2CC2)ncnc1-c1ccc(Cc2n[nH]c(C(F)(F)C(F)(F)C(F)(F)F)n2)cc1` [1-319], the insecticidal activity is reported as 100%.
`O=C(Nc1c(NC2CC2)nc(C(F)(F)F)nc1-c1ccc(F)cc1)c1cccnc1CC(F)(F)F` [1-324] gave an insecticidal activity of 100%.
Work on `O=C(Nc1c(NC2CC2)nc(Cl)nc1-c1ccc(F)cc1)c1cccnc1CC(F)(F)F` [1-325] yielded an insecticidal activity of 100%.
For `CCc1ncccc1C(=O)Nc1c(NC2CC2)nc(Cl)nc1-c1ccc(F)cc1` [1-326], the insecticidal activity was 100%.
For `CCc1ncccc1C(=O)Nc1c(Cl)ncnc1Nc1ccc(F)cc1` [5-2], the insecticidal activity was 100%.
